Source: PubChem BioAssay (NCI)
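Following 48 hours of exposure in 96-well plates, responses at five concentrations were used to interpolate endpoints linearly. TGI denotes the concentration required for complete inhibition of growth.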

Columns and labels:
Assay in all cases: growth of human tumour cells (NCI), 48 h
SF-295 CNS = system: SF-295 CNS
OVCAR-5 ovarian = system: OVCAR-5 ovarian
NCI-H522 lung = system: NCI-H522 lung
HS 578T breast = system: HS 578T breast
UACC-62 melanoma = system: UACC-62 melanoma
HT29 colon = system: HT29 colon
HOP-62 NSCLC = system: HOP-62 NSCLC
OVCAR-8 ovarian = system: OVCAR-8 ovarian
MDA-MB-435 = system: MDA-MB-435
PC-3 prostate = system: PC-3 prostate
COLO 205 colon = system: COLO 205 colon
SR leukemia = system: SR leukemia
CAKI-1 renal = system: CAKI-1 renal
SK-MEL-28 melanoma = system: SK-MEL-28 melanoma
DU-145 prostate = system: DU-145 prostate
RPMI-8226 leukemia = system: RPMI-8226 leukemia
MDA-MB-231 breast = system: MDA-MB-231 breast
U251 CNS = system: U251 CNS
MDA-N = system: MDA-N
MOLT-4 leukemia = system: MOLT-4 leukemia
IGROV1 ovarian = system: IGROV1 ovarian
SNB-19 CNS = system: SNB-19 CNS
K-562 leukemia = system: K-562 leukemia
A498 renal = system: A498 renal
UO-31 renal = system: UO-31 renal
CCRF-CEM leukemia = system: CCRF-CEM leukemia
OVCAR-3 ovarian = system: OVCAR-3 ovarian
SK-OV-3 ovarian = system: SK-OV-3 ovarian
NCI/ADR-RES ovarian = system: NCI/ADR-RES ovarian
MALME-3M melanoma = system: MALME-3M melanoma
M14 melanoma = system: M14 melanoma
NCI-H460 lung = system: NCI-H460 lung
NCI-H23 lung = system: NCI-H23 lung
KM12 colon = system: KM12 colon
HL-60(TB) leukemia = system: HL-60(TB) leukemia
SK-MEL-5 melanoma = system: SK-MEL-5 melanoma
SN12C renal = system: SN12C renal
T-47D breast = system: T-47D breast
HCT-15 colon = system: HCT-15 colon
BT-549 breast = system: BT-549 breast
MCF7 breast = system: MCF7 breast
NCI-H226 lung = system: NCI-H226 lung
RXF 393 renal = system: RXF 393 renal
SK-MEL-2 melanoma = system: SK-MEL-2 melanoma
HCC-2998 colon = system: HCC-2998 colon
SNB-75 CNS = system: SNB-75 CNS
HCT-116 colon = system: HCT-116 colon
SW-620 colon = system: SW-620 colon
SF-539 CNS = system: SF-539 CNS
HOP-92 NSCLC = system: HOP-92 NSCLC
A549 NSCLC = system: A549 NSCLC
ACHN renal = system: ACHN renal
786-0 renal = system: 786-0 renal
EKVX NSCLC = system: EKVX NSCLC
OVCAR-4 ovarian = system: OVCAR-4 ovarian
TK-10 renal = system: TK-10 renal
UACC-257 melanoma = system: UACC-257 melanoma
SF-268 CNS = system: SF-268 CNS
LOX IMVI melanoma = system: LOX IMVI melanoma

Measured: TGI

c1ccc(N=C2SC(=NC3CCCCC3)N(C3CCCCC3)C2=Nc2ccccc2)cc1
not listed: SW-620 colon | SF-539 CNS | HOP-92 NSCLC | A549 NSCLC | ACHN renal | 786-0 renal | EKVX NSCLC | OVCAR-4 ovarian | TK-10 renal | UACC-257 melanoma | SF-268 CNS | LOX IMVI melanoma
> 100 µM: all other assays above

CCCCCCCCCCCCCCCCCCNc1ccn(C2OC(COP(=O)(O)OCC3OC(n4cc(C)c(=O)[nH]c4=O)CC3O)C(O)C2O)c(=O)n1 (configuration not stated)
30.4 µM: HT29 colon
31.3 µM: SK-MEL-28 melanoma | NCI/ADR-RES ovarian
29.9 µM: BT-549 breast
25.7 µM: MOLT-4 leukemia
10.2 µM: PC-3 prostate
33.1 µM: SF-295 CNS | MDA-N
33.7 µM: MDA-MB-435
33.8 µM: UACC-62 melanoma
28.2 µM: OVCAR-5 ovarian | SR leukemia
37.1 µM: UACC-257 melanoma
32.4 µM: HOP-62 NSCLC | A549 NSCLC | SF-268 CNS
31.5 µM: SF-539 CNS
44.4 µM: ACHN renal
50.2 µM: K-562 leukemia
31.4 µM: MALME-3M melanoma
30.8 µM: HCT-116 colon
39.7 µM: OVCAR-3 ovarian
58.3 µM: A498 renal
31.9 µM: 786-0 renal | LOX IMVI melanoma
30.7 µM: M14 melanoma
62.8 µM: HOP-92 NSCLC
33.9 µM: UO-31 renal
36.3 µM: NCI-H460 lung
> 100 µM: MCF7 breast
35.8 µM: DU-145 prostate
32.6 µM: HCC-2998 colon
31.1 µM: MDA-MB-231 breast
39.4 µM: OVCAR-4 ovarian
23.6 µM: CCRF-CEM leukemia
36.4 µM: KM12 colon
31.6 µM: OVCAR-8 ovarian
31.8 µM: SK-OV-3 ovarian
29.8 µM: SNB-19 CNS
42.1 µM: NCI-H226 lung
41.8 µM: T-47D breast
28.1 µM: COLO 205 colon | SK-MEL-5 melanoma
37.3 µM: RPMI-8226 leukemia
30.3 µM: NCI-H522 lung
33.4 µM: SN12C renal
31 µM: NCI-H23 lung
33 µM: SNB-75 CNS
42.4 µM: HS 578T breast
33.2 µM: CAKI-1 renal
22.3 µM: TK-10 renal
33.5 µM: HCT-15 colon
34.9 µM: U251 CNS | EKVX NSCLC
28.5 µM: SW-620 colon
25.9 µM: RXF 393 renal

CNn1c(-c2ccccc2)n[nH]c1=O
not listed: RXF 393 renal
> 100 µM: all other assays above

COc1cc(-c2cc(=O)c3c(OC)c(OC)c(OC)c(OC)c3o2)c(OC)c(OC)c1OC
49.1 µM: UACC-62 melanoma
88.6 µM: UO-31 renal
94.6 µM: NCI-H522 lung
66.8 µM: NCI/ADR-RES ovarian
50.1 µM: PC-3 prostate
82.5 µM: HOP-92 NSCLC
51 µM: T-47D breast
90.3 µM: KM12 colon
56.8 µM: BT-549 breast
49.4 µM: SK-MEL-2 melanoma
not listed: A498 renal | OVCAR-3 ovarian | NCI-H23 lung
> 100 µM: all other assays above
